This is an account of results in paper PMC5218480 (PLoS ONE, 2017).

The subject of the assay is MV-4-11 cells. As to the kind of experiment: Gene expression microarray analysis (Affymetrix PrimeView) and GSEA. Type of assay: cell-based, human. As to conditions: ProbeSet 11754362_a_at; LIST D. Details: RFU PODN (11730768_x_at) / Fold change /veh PODN (11730768_x_at) / RFU LINC00158 (11744669_a_at) / Fold change /veh LINC00158 (11744669_a_at) / RFU DUSP10 (11751237_a_at) / Fold change /veh DUSP10 (11751237_a_at) / RFU ID3 (11757404_x_at) / Fold change /veh ID3 (11757404_x_at) / RFU PLEKHG5 (11737974_s_at) / Fold change /veh PLEKHG5 (11737974_s_at) / RFU LRRC4B (11730491_at) / Fold change /veh LRRC4B (11730491_at) / RFU GIMAP4 (11747438_a_at) / Fold change /veh GIMAP4 (11747438_a_at) / RFU KRT8 (11758183_x_at) / Fold change /veh KRT8 (11758183_x_at) / RFU CNN1 (11734310_a_at) / Fold change /veh CNN1 (11734310_a_at) / RFU VPS37D (11726825_at) / Fold change /veh VPS37D (11726825_at) / RFU C10orf10 (11716522_x_at) / Fold change /veh C10orf10 (11716522_x_at) / RFU KIR2DL2 /// KIR2DL4 /// KIR2DL5A /// KIR2DL5B /// KIR2DS1 /// KIR2DS2 /// KIR2DS3 /// KIR2DS4 /// KIR3DL3 /// KIR3DL3 /// KIR3DS1 (11738374_at) / Fold change /veh KIR2DL2 /// KIR2DL4 /// KIR2DL5A /// KIR2DL5B /// KIR2DS1 /// KIR2DS2 /// KIR2DS3 /// KIR2DS4 /// KIR3DL3 /// KIR3DL3 /// KIR3DS1 (11738374_at) / RFU C1QL1 (11718748_at) / Fold change /veh C1QL1 (11718748_at) / RFU TMPRSS4 (11747572_a_at) / Fold change /veh TMPRSS4 (11747572_a_at) / RFU HAMP (11756126_x_at) / Fold change /veh HAMP (11756126_x_at) / RFU RNFT2 (11725882_a_at) / Fold change /veh RNFT2 (11725882_a_at) / RFU NR4A2 (11747474_a_at) / Fold change /veh NR4A2 (11747474_a_at) / RFU ABCC12 (11746883_a_at) / Fold change /veh ABCC12 (11746883_a_at) / RFU TMEM136 (11760407_x_at) / Fold change /veh TMEM136 (11760407_x_at) / RFU CLDN22 /// WWC2 (11732394_at) / Fold change /veh CLDN22 /// WWC2 (11732394_at) / RFU HLA-DPB1 (11760878_x_at) / Fold change /veh HLA-DPB1 (11760878_x_at) / RFU SPINT1 (11716480_a_at) / Fold change /veh SPINT1 (11716480_a_at) / RFU GAP43 (11754022_s_at) / Fold change /veh GAP43 (11754022_s_at) / RFU A4GNT (11735810_at) / Fold change /veh A4GNT (11735810_at) / RFU PRB3 (11715151_x_at) / Fold change /veh PRB3 (11715151_x_at) / RFU TUBB4B (11761932_at) / Fold change /veh TUBB4B (11761932_at) / RFU CAPN14 (11732068_a_at) / Fold change /veh CAPN14 (11732068_a_at) / RFU TMCC2 (11721928_a_at) / Fold change /veh TMCC2 (11721928_a_at) / RFU IRGQ (11745062_a_at) / Fold change /veh IRGQ (11745062_a_at) / RFU FAM174B (11720279_a_at) / Fold change /veh FAM174B (11720279_a_at) / RFU TMPRSS4 (11748680_a_at) / Fold change /veh TMPRSS4 (11748680_a_at) / RFU FAM212B (11763350_a_at) / Fold change /veh FAM212B (11763350_a_at) / RFU PLEKHG5 (11743358_a_at) / Fold change /veh PLEKHG5 (11743358_a_at) / RFU ZSCAN30 (11745921_a_at) / Fold change /veh ZSCAN30 (11745921_a_at) / RFU CMKLR1 (11741424_a_at) / Fold change /veh CMKLR1 (11741424_a_at) / RFU LOC101060620 /// MAPK8IP1 (11723275_at) / Fold change /veh LOC101060620 /// MAPK8IP1 (11723275_at) / RFU SPTSSB (11747773_x_at) / Fold change /veh SPTSSB (11747773_x_at) / RFU PRSS12 (11739890_at) / Fold change /veh PRSS12 (11739890_at) / RFU BIN1 (11741810_x_at) / Fold change /veh BIN1 (11741810_x_at) / RFU WNT11 (11732464_a_at) / Fold change /veh WNT11 (11732464_a_at) / RFU C10orf10 (11716521_a_at) / Fold change /veh C10orf10 (11716521_a_at) / RFU C5orf56 (11738089_at) / Fold change /veh C5orf56 (11738089_at) / RFU CYB561 (11721691_x_at) / Fold change /veh CYB561 (11721691_x_at) / RFU ANKRD19P (11752326_a_at) / Fold change /veh ANKRD19P (11752326_a_at) / RFU OR2T12 /// OR2T33 /// OR2T8 (11738714_s_at) / Fold change /veh OR2T12 /// OR2T33 /// OR2T8 (11738714_s_at) / RFU VCAN (11748164_a_at) / Fold change /veh VCAN (11748164_a_at) / RFU JSRP1 (11732532_at) / Fold change /veh JSRP1 (11732532_at) / RFU KRTAP10-11 (11738290_x_at) / Fold change /veh KRTAP10-11 (11738290_x_at) / RFU MYO3A (11730013_a_at) / Fold change /veh MYO3A (11730013_a_at) / RFU EBF3 (11725865_a_at) / Fold change /veh EBF3 (11725865_a_at) / RFU CAMK2N1 (11719241_x_at) / Fold change /veh CAMK2N1 (11719241_x_at) / RFU C5orf56 (11738088_a_at) / Fold change /veh C5orf56 (11738088_a_at) / RFU OLFML3 (11715873_a_at) / Fold change /veh OLFML3 (11715873_a_at) / RFU LOC100653217 /// NTM (11731650_a_at) / Fold change /veh LOC100653217 /// NTM (11731650_a_at) / RFU MAPK11 (11762145_a_at) / Fold change /veh MAPK11 (11762145_a_at) / RFU FIZ1 (11724087_x_at) / Fold change /veh FIZ1 (11724087_x_at) / RFU OASL (11726364_x_at) / Fold change /veh OASL (11726364_x_at) / RFU SOX15 (11748057_x_at) / Fold change /veh SOX15 (11748057_x_at) / RFU CD79A (11719716_a_at) / Fold change /veh CD79A (11719716_a_at) / RFU HIST1H1D (11736915_at) / Fold change /veh HIST1H1D (11736915_at) / RFU CASKIN2 (11723855_a_at) / Fold change /veh CASKIN2 (11723855_a_at) / RFU LOC730098 (11760151_x_at) / Fold change /veh LOC730098 (11760151_x_at) / RFU OR4N2 (11742367_at) / Fold change /veh OR4N2 (11742367_at) / RFU PRRT2 (11749266_a_at) / Fold change /veh PRRT2 (11749266_a_at) / RFU SNX32 (11753110_a_at) / Fold change /veh SNX32 (11753110_a_at) / RFU CDHR5 (11726645_a_at) / Fold change /veh CDHR5 (11726645_a_at) / RFU RCAN1 (11760418_a_at) / Fold change /veh RCAN1 (11760418_a_at) / RFU FAM167A (11723789_a_at) / Fold change /veh FAM167A (11723789_a_at) / RFU FAM26E (11764081_at) / Fold change /veh FAM26E (11764081_at) / RFU ISYNA1 (11749810_s_at) / Fold change /veh ISYNA1 (11749810_s_at) / RFU ACY1 (11761880_at) / Fold change /veh ACY1 (11761880_at) / RFU 11764098_at / Fold change /veh 11764098_at / RFU SAMD14 (11745864_x_at) / Fold change /veh SAMD14 (11745864_x_at) / RFU NPB (11741838_a_at) / Fold change /veh NPB (11741838_a_at) / RFU TMPRSS6 (11731388_a_at) / Fold change /veh TMPRSS6 (11731388_a_at) / RFU KRTAP10-2 (11738614_at) / Fold change /veh KRTAP10-2 (11738614_at) / RFU ARHGAP8 /// PRR5-ARHGAP8 (11727945_x_at) / Fold change /veh ARHGAP8 /// PRR5-ARHGAP8 (11727945_x_at) / RFU KRTAP5-7 /// NADSYN1 (11734609_at) / Fold change /veh KRTAP5-7 /// NADSYN1 (11734609_at) / RFU RASL12 (11751679_a_at) / Fold change /veh RASL12 (11751679_a_at) / RFU CDKN2B (11736163_a_at) / Fold change /veh CDKN2B (11736163_a_at) / RFU PRF1 (11729649_at) / Fold change /veh PRF1 (11729649_at) / RFU, ZNF638 /// ZNF638-IT1 / Fold change vs veh, ZNF638 /// ZNF638-IT1 / RFU, PANK3 / Fold change vs veh, PANK3 / RFU, SH3YL1 / Fold change vs veh, SH3YL1 / RFU, ZEB2 / Fold change vs veh, ZEB2 / RFU, NRIP1 / Fold change vs veh, NRIP1 / RFU, PTTG1IP / Fold change vs veh, PTTG1IP / RFU, CAPN2 / Fold change vs veh, CAPN2 / RFU, MED14 / Fold change vs veh, MED14 / RFU, SNORA58 / Fold change vs veh, SNORA58 / RFU, C1orf63 / Fold change vs veh, C1orf63 / RFU, LRRFIP1 / Fold change vs veh, LRRFIP1 / RFU, NDUFAF7 / Fold change vs veh, NDUFAF7 / RFU, SLC12A2 / Fold change vs veh, SLC12A2 / RFU, IBTK / Fold change vs veh, IBTK / RFU, ESF1 / Fold change vs veh, ESF1 / Fold change vs veh, TMEM50B / RFU, TAOK1 / Fold change vs veh, TAOK1 / RFU, ACBD3 / Fold change vs veh, ACBD3 / RFU, TMA16 / Fold change vs veh, TMA16 / RFU, RWDD3 / Fold change vs veh, RWDD3 / RFU, BCAT1 / Fold change vs veh, BCAT1 / RFU, EDEM3 / Fold change vs veh, EDEM3 / RFU, TMEM33 / Fold change vs veh, TMEM33 / RFU, WDR75 / Fold change vs veh, WDR75 / RFU, AHCTF1 / Fold change vs veh, AHCTF1 / RFU, TFRC / Fold change vs veh, TFRC / RFU, ZDHHC17 / Fold change vs veh, ZDHHC17 / RFU, NOM1 / Fold change vs veh, NOM1 / RFU, ARL8B / Fold change vs veh, ARL8B / RFU, ZBTB11 / Fold change vs veh, ZBTB11 / RFU, TAMM41 / Fold change vs veh, TAMM41 / RFU, KIAA1704 /// LOC100996395 / Fold change vs veh, KIAA1704 /// LOC100996395 / RFU, ING1 / Fold change vs veh, ING1 / RFU, TRMT61B / Fold change vs veh, TRMT61B / RFU, FUBP3 / Fold change vs veh, FUBP3 / RFU, TP53 / Fold change vs veh, TP53 / RFU, TNKS2 / Fold change vs veh, TNKS2 / RFU, ZFP14 / Fold change vs veh, ZFP14 / RFU, ACTR2 / Fold change vs veh, ACTR2 / RFU, PPP3R1 / Fold change vs veh, PPP3R1 / RFU, PIK3R1 / Fold change vs veh, PIK3R1 / RFU, HNRNPA1 / Fold change vs veh, HNRNPA1 / RFU, RNF170 / Fold change vs veh, RNF170 / RFU, ZNF28 / Fold change vs veh, ZNF28 / RFU, RNGTT / Fold change vs veh, RNGTT / RFU, OGT / Fold change vs veh, OGT / RFU, BRD1 / Fold change vs veh, BRD1 / RFU, MARS / Fold change vs veh, MARS / RFU, ZNF655 / Fold change vs veh, ZNF655 / RFU, FAHD1 / Fold change vs veh, FAHD1 / RFU, BDP1 / Fold change vs veh, BDP1 / RFU, LRRCC1 / Fold change vs veh, LRRCC1 / RFU, ARID1A / Fold change vs veh, ARID1A / RFU, ZNF146 / Fold change vs veh, ZNF146 / RFU, ZNF330 / Fold change vs veh, ZNF330 / RFU, GPN3 / Fold change vs veh, GPN3 / RFU, C9orf123 / Fold change vs veh, C9orf123 / RFU, N4BP2L2 / Fold change vs veh, N4BP2L2 / RFU, ARFIP1 / Fold change vs veh, ARFIP1 / RFU, FAM179B / Fold change vs veh, FAM179B / RFU, BCL10 / Fold change vs veh, BCL10 / RFU, UHRF1BP1L / Fold change vs veh, UHRF1BP1L / RFU, BET1 / Fold change vs veh, BET1 / RFU, CNOT2 / Fold change vs veh, CNOT2 / RFU, ZNF268 / Fold change vs veh, ZNF268 / Fold change vs veh, ZNF507 / RFU, DGCR2 / Fold change vs veh, DGCR2 / RFU, WDSUB1 / Fold change vs veh, WDSUB1 / Fold change vs veh, HSP90B1 /// MIR3652 / RFU, ADSS / Fold change vs veh, ADSS / RFU, GK / Fold change vs veh, GK / RFU, ZNF148 / Fold change vs veh, ZNF148 / RFU, TAF9 / Fold change vs veh, TAF9 / RFU, SLC1A5 / Fold change vs veh, SLC1A5 / RFU, SLMO2 / Fold change vs veh, SLMO2 / RFU, ABCC4 / Fold change vs veh, ABCC4 / RFU, LOC101060439 /// RAP1B / Fold change vs veh, LOC101060439 /// RAP1B / RFU, RFX7 / Fold change vs veh, RFX7 / RFU, GTPBP10 / Fold change vs veh, GTPBP10 / RFU, CNEP1R1 / Fold change vs veh, CNEP1R1 / RFU, BIVM-ERCC5 /// ERCC5 / Fold change vs veh, BIVM-ERCC5 /// ERCC5 / RFU, ILF3 / Fold change vs veh, ILF3 / RFU 11762660_at / Fold change /veh 11762660_at / RFU VCAN (11757783_s_at) / Fold change /veh VCAN (11757783_s_at) / RFU DDX43 (11728927_at) / Fold change /veh DDX43 (11728927_at) / RFU KRT8 (11758188_x_at) / Fold change /veh KRT8 (11758188_x_at) / RFU NKD1 (11759106_at) / Fold change /veh NKD1 (11759106_at) / RFU SRD5A1 (11742802_a_at) / Fold change /veh SRD5A1 (11742802_a_at) / RFU TPSAB1 /// TPSB2 (11721975_s_at) / Fold change /veh TPSAB1 /// TPSB2 (11721975_s_at) / RFU GSTM3 (11746129_a_at) / Fold change /veh GSTM3 (11746129_a_at) / RFU IL23R (11737362_x_at) / Fold change /veh IL23R (11737362_x_at) / RFU TMEM51 (11727254_a_at) / Fold change /veh TMEM51 (11727254_a_at) / RFU PIWIL2 (11732686_x_at) / Fold change /veh PIWIL2 (11732686_x_at) / RFU ORM1 (11744905_x_at) / Fold change /veh ORM1 (11744905_x_at) / RFU CCDC152 (11743942_at) / Fold change /veh CCDC152 (11743942_at) / RFU ECM1 (11717891_a_at) / Fold change /veh ECM1 (11717891_a_at) / RFU IL23R (11748794_a_at) / Fold change /veh IL23R (11748794_a_at) / RFU TNFAIP8L3 (11732012_x_at) / Fold change /veh TNFAIP8L3 (11732012_x_at) / RFU MBOAT4 (11741988_at) / Fold change /veh MBOAT4 (11741988_at) / RFU 11764193_at / Fold change /veh 11764193_at / RFU TMEM53 (11763286_at) / Fold change /veh TMEM53 (11763286_at) / RFU MAGEB2 (11727129_at) / Fold change /veh MAGEB2 (11727129_at) / RFU TMEM200A (11744735_a_at) / Fold change /veh TMEM200A (11744735_a_at) / RFU CCDC152 (11751479_a_at) / Fold change /veh CCDC152 (11751479_a_at) / RFU FAM211A (11726209_a_at) / Fold change /veh FAM211A (11726209_a_at) / RFU RGS16 (11746705_a_at) / Fold change /veh RGS16 (11746705_a_at) / RFU VCAN (11755009_s_at) / Fold change /veh VCAN (11755009_s_at) / RFU RHOB (11743442_s_at) / Fold change /veh RHOB (11743442_s_at) / RFU RGS16 (11720943_a_at) / Fold change /veh RGS16 (11720943_a_at) / RFU RGS16 (11720944_at) / Fold change /veh RGS16 (11720944_at) / RFU, VPS4B / Fold change vs veh, VPS4B / RFU, CREB1 / Fold change vs veh, CREB1 / RFU, DNAJC13 / Fold change vs veh, DNAJC13 / RFU, GNAQ / Fold change vs veh, GNAQ / RFU, CDK5R1 / Fold change vs veh, CDK5R1 / RFU, ZRANB3 / Fold change vs veh, ZRANB3 / RFU, CUL4A / Fold change vs veh, CUL4A / RFU, CCNY / Fold change vs veh, CCNY / RFU, UFL1 / Fold change vs veh, UFL1 / RFU, COG3 / Fold change vs veh, COG3 / RFU, DIAPH2 / Fold change vs veh, DIAPH2 / RFU, SKA2 / Fold change vs veh, SKA2 / RFU, AFF3 / Fold change vs veh, AFF3 / RFU, LMF1 / Fold change vs veh, LMF1 / RFU, IPO11 / Fold change vs veh, IPO11 / RFU, DFFB / Fold change vs veh, DFFB / RFU, FOXP1 / Fold change vs veh, FOXP1 / RFU, CARD8 / Fold change vs veh, CARD8 / RFU, STRN3 / Fold change vs veh, STRN3 / RFU, ADK / Fold change vs veh, ADK / RFU, RASSF2 / Fold change vs veh, RASSF2 / RFU, WIPF1 / Fold change vs veh, WIPF1 / RFU, LARP1B / Fold change vs veh, LARP1B / RFU, RASA1 / Fold change vs veh, RASA1 / RFU, RB1 / Fold change vs veh, RB1 / RFU, PPFIA1 / Fold change vs veh, PPFIA1 / RFU, MAT2A / Fold change vs veh, MAT2A / RFU, CCT5 / Fold change vs veh, CCT5 / RFU, WDR92 / Fold change vs veh, WDR92 / RFU, CUX1 / Fold change vs veh, CUX1 / RFU, TTC7A / Fold change vs veh, TTC7A / RFU, TMEM135 / Fold change vs veh, TMEM135 / RFU, DEPTOR / Fold change vs veh, DEPTOR / RFU, CPM / Fold change vs veh, CPM / RFU, DNAJB6 / Fold change vs veh, DNAJB6 / RFU, CACNA2D3 / Fold change vs veh, CACNA2D3 / RFU, DTX4 / Fold change vs veh, DTX4 / RFU, TFCP2 / Fold change vs veh, TFCP2 / RFU, GMCL1 /// GMCL1P1 / Fold change vs veh, GMCL1 /// GMCL1P1 / RFU, AEBP2 / Fold change vs veh, AEBP2 / RFU, SNHG1 /// SNORD22 /// SNORD25 /// SNORD26 /// SNORD27 /// SNORD28 /// SNORD29 /// SNORD31 / Fold change vs veh, SNHG1 /// SNORD22 /// SNORD25 /// SNORD26 /// SNORD27 /// SNORD28 /// SNORD29 /// SNORD31 / Fold change (Aza/veh), C12orf56 (ProbeSet 11735607_a_at) / Fold change (ACY-1035/veh), C12orf56 (ProbeSet 11735607_a_at) / Fold change (Aza/veh), FGFR1OP (ProbeSet 11751329_s_at) / Fold change (ACY-1035/veh), FGFR1OP (ProbeSet 11751329_s_at) / Fold change (Aza/veh), VPS36 (ProbeSet 11739960_a_at) / Fold change (ACY-1035/veh), VPS36 (ProbeSet 11739960_a_at) / RFU SYPL1 (11715823_x_at) / Fold change /veh SYPL1 (11715823_x_at) / RFU IGFBP7 (11715501_s_at) / Fold change /veh IGFBP7 (11715501_s_at) / RFU REEP3 (11722064_at) / Fold change /veh REEP3 (11722064_at) / RFU IGLL1 (11728026_x_at) / Fold change /veh IGLL1 (11728026_x_at): dose or concentration left out as unconfirmed.

In the case of `Nc1ncn([C@@H]2O[C@H](CO)[C@@H](O)[C@H]2O)c(=O)n1` [azacitidine], the “RFU, TTC7A” value is recorded as 124.13 RFU.
